Results as given in paper PMC12473689, “Drug Metabolism and Pharmacokinetics of Oxazolo[4,5-c]quinoline Analogs as Novel Interleukin-33 Inhibitors” (Pharmaceutics, 2025).

Columns and labels:
Type in all cases: in vitro ADME
[1] = In vitro metabolic stability in pooled mouse liver S9 fraction; conditions: male, ICR; for remaining at 1 h, 3 µM / half-life at 3 µM: pH 7.4, MLS9 1 mg/mL, 3 µM compound; for remaining at 1 h, 3 µM: cofactors NADPH, UDPGA, PAPS, GSH, 37 °C, read-out: % remaining after 60 min; for half-life at 3 µM: with cofactors, one-phase decay fit, read-out: in vitro t½ (estimated); for microsomal CLint at 3 µM: pH 7.4, MLS9, CLint,u = k/(fu,S9 × [S9]), read-out: CLint,u (unbound intrinsic clearance)
Method: (§1) Metabolic stability was assessed using pooled HLS9 and MLS9 fractions. The S9 fractions (20 mg/mL) were diluted to 1 mg/mL with 0.1 M potassium phosphate buffer (pH 7.4). Stock solutions of KB-1517 and KB-1518 (10 mM in DMSO) were diluted in 50% aqueous acetonitrile to prepare working solutions (120 µM). A Tris mix buffer containing 1 M Tris-HCl (pH 7.4), 10 mM MgCl2, and 125 µg/mL alamethicin was prepared. A combined cofactor solution was prepared in 0.1 M potassium phosphate buffer (pH 7.4): 10 mM NADPH, 5 mM UDPGA, 1 mM PAPS, and 25 mM GSH.
(§2) The incubation mixture (final volume 200 µL) contained: 125 µL of deionized water, 40 µL of Tris mix buffer, 10 µL of 20 mg protein/mL S9 fraction (final concentration 1 mg protein/mL), and 5 µL of the test compound working solution (final concentration 3 µM). The final concentrations of DMSO and acetonitrile were 0.03% and 1%, respectively. The mixture was pre-incubated at 37 °C for 5 min in a shaking water bath. The reaction was initiated by adding 20 µL of the combined cofactor solution (final concentrations: 1 mM NADPH, 0.5 mM UDPGA, 0.1 mM PAPS, 2.5 mM GSH). Control incubations were performed without the cofactor mixture (replaced with buffer) and at 0 min (quenched immediately after adding cofactors). Incubations were carried out at 37 °C for 0, 15, 30, and 60 min (for stability) or 60 min (for metabolite ID). Reactions were terminated by adding 200 µL of ice-cold acetonitrile containing IS (diclofenac).
(§3) Terminated samples were sonicated (5 min), vortexed (1500 rpm, 5 min), and centrifuged (3000 rpm, 20 min, 4 °C). An aliquot (150 µL) of the supernatant was transferred to a 96-well plate for LC-MS/MS analysis as described in Section 2.6.2.
(§4) Noncompartmental analysis (NCA) was performed using PKSolver to determine pharmacokinetic parameters from the plasma concentration-time data. Parameters included: maximum plasma concentration (Cmax), time to reach Cmax (tmax), terminal elimination half-life (t1/2), area under the plasma concentration-time curve from time zero to the last measurable concentration (AUClast), area under the plasma concentration-time curve extrapolated to infinity (AUCinf), total body clearance (CL), and volume of distribution at steady state (Vss). Oral bioavailability (F) was calculated as: F(%) = (AUCinf,PO/AUCinf,IV)× (DoseIV/DosePO)×100. Due to the anomalous profile of KB-1517, AUClast was used for its F calculation, and some parameters (t½, CL, Vss for IV; AUCinf for PO) could not be reliably determined (ND). The metabolic rate constant (k) was determined by fitting the in vitro metabolic stability data to a one-phase decay equation via nonlinear regression using GraphPad Prism (Version 10, GraphPad Software, Boston, MA, USA). The in vitro t1/2 was calculated from the equation t1/2 = ln(2)/k. Subsequently, the unbound intrinsic clearance (CLint,u) was calculated as follows: CLint,u = k/(fu,S9 × [S9]), where fu,S9 is the fraction unbound in the S9 incubation and [S9] is the S9 protein concentration.
(§5) The metabolic stability of KB-1517 and KB-1518 was evaluated by incubating the compounds (3 µM) with HLS9 and MLS9 fractions (1 mg/mL) in the presence of a comprehensive set of phase I and phase II cofactors (NADPH, UDPGA, PAPS, and GSH) for up to 60 min.

[2] = In vitro metabolic stability in pooled human liver S9 fraction; conditions: for remaining at 1 h, 3 µM / half-life at 3 µM: pH 7.4, HLS9 1 mg/mL, 3 µM compound; for remaining at 1 h, 3 µM: cofactors NADPH, UDPGA, PAPS, GSH, 37 °C, read-out: % remaining after 60 min; for half-life at 3 µM: with cofactors, one-phase decay fit, read-out: in vitro t½ (estimated); for microsomal CLint at 3 µM: pH 7.4, HLS9, CLint,u = k/(fu,S9 × [S9]), read-out: CLint,u (unbound intrinsic clearance)
Method: as §1, §2, §3, §4, §5

[3] = Binding in mouse liver S9 fraction by equilibrium dialysis (RED); conditions: equilibrium dialysis 37 °C 4 h, mean ± SD (n = 3)
Method: (§6) The nonspecific binding of KB-1517 and KB-1518 in human and mouse plasma and liver S9 fractions was determined by equilibrium dialysis using a Rapid Equilibrium Device (RED) system (Thermo Fisher Scientific, Seoul, Republic of Korea).
(§7) Working solutions (200 μM for plasma, 60 μM for S9 fractions) were prepared in 40% aqueous acetonitrile. These were diluted 20-fold into either plasma or S9 incubation buffer (1 mg/mL protein, 200 mM Tris-HCl, 2 mM MgCl2, pH 7.4) to create the final dosing solutions.
(§8) For the dialysis, RED inserts (8 kDa MWCO) were used. Into each device, 200 μL of a dosing solution was added to the sample chamber, and 350 μL of PBS was added to the buffer chamber. The plate was sealed and incubated at 37 °C for 4 h on an orbital shaker (100 rpm) to allow the system to reach equilibrium.
(§9) Following incubation, 50 μL aliquots were taken from both chambers. To ensure analytical consistency, the samples were matrix-matched: the sample chamber aliquot was mixed with 50 μL of PBS, and the buffer chamber aliquot was mixed with 50 μL of the corresponding blank matrix (plasma or S9 incubation buffer). Proteins were then precipitated by adding 200 μL of ice-cold acetonitrile containing diclofenac (1 μg/mL) as IS. The samples were subsequently vortexed, sonicated for 5 min, and centrifuged at 4000× g for 20 min. Finally, a 100 μL aliquot of the resulting supernatant was diluted with 100 μL of HPLC-grade water in a 96-well plate for subsequent LC-MS/MS analysis.

[4] = Plasma protein binding by equilibrium dialysis (RED), mouse plasma; conditions: male, ICR, equilibrium dialysis 37 °C 4 h, mean ± SD (n = 3), read-out: fu (%) plasma protein binding
Method: as §6, §7, §8, §9

[5] = Binding in human liver S9 fraction by equilibrium dialysis (RED); conditions: equilibrium dialysis 37 °C 4 h, mean ± SD (n = 3)
Method: as §6, §7, §8, §9

[6] = Plasma protein binding by equilibrium dialysis (RED), human plasma; conditions: equilibrium dialysis 37 °C 4 h, mean ± SD (n = 3), read-out: fu (%) plasma protein binding
Method: as §6, §7, §8, §9

| remaining at 1 h, 3 µM [1] [%] | half-life at 3 µM [1] [h] | microsomal CLint at 3 µM [1] [µL/min/mg] | remaining at 1 h, 3 µM [2] [%] | half-life at 3 µM [2] [h] | microsomal CLint at 3 µM [2] [µL/min/mg] | fraction unbound at 4 h, 3 µM ([3]; ICR, mouse, liver S9 fraction, pH 7.4, mouse liver S9, 1 mg/mL protein, read-out: fu (%) in liver S9 fractions) | fu (%) in liver S9 fractions ([3]; mouse liver S9, 1 mg/mL protein) [%] | fraction unbound at 4 h, 10 µM [4] | fu (%) in liver S9 fractions ([5]; human liver S9, 1 mg/mL protein) [%] | fraction unbound at 4 h, 3 µM ([5]; human, liver S9 fraction, pH 7.4, human liver S9, 1 mg/mL protein, read-out: fu (%) in liver S9 fractions) | fraction unbound at 4 h, 10 µM [6] | SMILES |
| --- | --- | --- | --- | --- | --- | --- | --- | --- | --- | --- | --- | --- |
| 57.2 ± 1.3 | 1.24 | 216 | 74.2 ± 2.5 | 1.88 | 101 | – | – | – | – | – | – | CN(C)CCOc1nc2ccccc2c2oc(-c3ccc(C(F)(F)F)cc3)nc12 [KB-1518, N,N-dimethyl-2-((2-(4-(trifluoromethyl)phenyl)oxazolo[4,5-c]quinolin-4-yl)oxy)ethan-1-amine] |
| 67.2 ± 1 | 3.06 | 25 | 81.9 ± 0.7 | 3.09 | 19.6 | < 0.2 | 15.1 ± 0.8 | < 0.02 | 19.1 ± 0.7 | < 0.2 | < 0.02 | CN(C)CCn1c(=O)c2nc(-c3ccc(C(F)(F)F)cc3)oc2c2ccccc21 [KB-1517, 5-(2-(dimethylamino)ethyl)-2-(4-(trifluoromethyl)phenyl)oxazolo[4,5-c]quinolin-4(5H)-one] |
